Measured values: US20200016200A1, “MODULATING CYTOTOXIC CELL LYTIC GRANULE POSITIONING TO PROMOTE DIFFUSE KILLING IN CELLULAR THERAPIES” (Baylor College of Medicine, priority 2016, published 2020)

Test system: eNK cells
Assay: Live cell confocal microscopy (UGATm) of antibody-dependent cellular cytotoxicity
Assay type: cell-based, human
Conditions: eNK aggregated with uncoated and RTX-coated Raji cells, no LFA-1 blockade
Method: FIGS. 9A-9D. LFA-1 blockade increases bystander killing. Live cell confocal microscopy of antibody-dependent cellular cytotoxicity by eNK cells pre-treated with murine IgG1 mAb control (9A) or LFA-1 blocking mAb (clone TS1/22, 9B). Green, RTX-coated Raji cells (NK-inciting targets); yellow, uncoated Raji cells (bystanders); red, LysoTracker Red (lytic granules); blue, SYTOX Blue viability dye. NK cells were mixed with the target cells immediately before the imaging process and imaged every 4 min for 4 hours. […] Data represent combined results from three healthy donors. Standard 4-hour 51Cr cytotoxicity assay of NK cells treated with LFA-1-blocking mAb or murine IgG control (9D). Each dot represents an individual healthy donor.
To apply this concept in the context of physiologic antibody-dependent cell mediated cytotoxicity (ADCC) a human therapeutic monoclonal antibody, Rituximab (RTX) was used along with NK cell resistant Raji cells that naturally express the antigen recognized by RTX. […]
YTS-CD16 and eNK cells were incubated with 5 μM LysoTracker Red DND-99 (Thermo Fisher) for 30 min at 37° C. and washed. […] Emission was detected with HyD detectors, and images were collected in a single z-plane at one frame every 4 or 30 min for 120 min. […]

Substance: Rituximab: human therapeutic monoclonal antibody against CD20, used to coat Raji cells for ADCC
- killing of RTX-coated versus uncoated Raji cells: preferential killing of the RTX-coated Raji cells
